# Experimental data taken from US20050119337A1, “Methods of application of Schisandrin B in the preparation of anticancer medications” (priority 2003, published 2005).
# How the values were obtained:
# KBV200 cells = assay: Intracellular distribution of daunorubicin and Rh-123, fluorescent microscope; format: cell-based, human; conditions: KBV200, Schisandrin B 5 and 10 μg/ml, 1 hour, FIGS. 10 and 11
# Protocol: To illustrate the effects of Schisandrin B on the intracellular distribution in MDR cancer cells, MDR cell KBV200 and its parental drug sensitive cell line KB were selected for use. […] The respective cultures were incubated at 37° C. for 1 hour, washed with ice-cold PBS, and the cells were observed under fluorescent microscope.
# P-glycoprotein [1] = biological target: T1, P-glycoprotein (Homo sapiens, UniProt P08183); assay: Intracellular doxorubicin accumulation, flow cytometry; format: cell-based; conditions: doxorubicin 5 μg/ml, Schisandrin B 10 μg/ml, 60-120 minutes, FIG. 3
# T1 construct: The cell line selected was MDR cancer cell K562/adr and its parental drug sensitive cell K562; endogenous in cells; host or cells: K562/adr (doxorubicin-selected human leukemia MDR cell line)
# T1 sequence (P08183 whole entry): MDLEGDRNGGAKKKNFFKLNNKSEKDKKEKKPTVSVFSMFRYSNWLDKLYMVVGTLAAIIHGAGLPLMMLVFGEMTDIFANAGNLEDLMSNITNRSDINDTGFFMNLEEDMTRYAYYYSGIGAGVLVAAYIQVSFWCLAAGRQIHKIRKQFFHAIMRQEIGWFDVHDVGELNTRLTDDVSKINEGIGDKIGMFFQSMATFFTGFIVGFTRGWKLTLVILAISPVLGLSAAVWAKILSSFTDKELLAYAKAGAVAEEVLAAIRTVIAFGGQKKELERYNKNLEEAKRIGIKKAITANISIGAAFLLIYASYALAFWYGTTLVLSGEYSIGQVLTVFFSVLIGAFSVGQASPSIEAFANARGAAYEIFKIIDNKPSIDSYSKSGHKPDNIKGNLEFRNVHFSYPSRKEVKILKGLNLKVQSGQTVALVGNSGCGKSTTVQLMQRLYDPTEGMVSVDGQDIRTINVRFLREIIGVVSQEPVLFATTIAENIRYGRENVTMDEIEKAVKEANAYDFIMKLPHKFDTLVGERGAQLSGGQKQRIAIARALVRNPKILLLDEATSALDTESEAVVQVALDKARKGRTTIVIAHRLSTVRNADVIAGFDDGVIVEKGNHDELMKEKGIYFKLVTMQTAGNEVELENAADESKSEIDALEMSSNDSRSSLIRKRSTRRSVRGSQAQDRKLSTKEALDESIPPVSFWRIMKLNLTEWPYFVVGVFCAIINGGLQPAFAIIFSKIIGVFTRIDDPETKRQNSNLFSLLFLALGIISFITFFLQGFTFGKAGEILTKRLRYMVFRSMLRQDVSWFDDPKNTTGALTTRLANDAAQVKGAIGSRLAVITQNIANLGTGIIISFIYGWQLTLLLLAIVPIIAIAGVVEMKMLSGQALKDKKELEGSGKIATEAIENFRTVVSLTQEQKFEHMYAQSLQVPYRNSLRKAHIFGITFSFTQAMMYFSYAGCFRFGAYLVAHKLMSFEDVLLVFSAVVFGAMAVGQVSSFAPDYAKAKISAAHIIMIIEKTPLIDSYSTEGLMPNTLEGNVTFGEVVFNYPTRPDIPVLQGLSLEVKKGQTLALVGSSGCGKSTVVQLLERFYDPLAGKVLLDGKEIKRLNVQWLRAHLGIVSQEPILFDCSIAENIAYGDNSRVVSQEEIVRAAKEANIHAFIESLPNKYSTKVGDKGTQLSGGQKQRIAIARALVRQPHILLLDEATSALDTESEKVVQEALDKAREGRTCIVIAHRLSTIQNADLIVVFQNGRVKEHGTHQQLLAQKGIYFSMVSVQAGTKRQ
# Protocol: The cell line selected was MDR cancer cell K562/adr and its parental drug sensitive cell K562. Cells were cultured in RPMI-1640 medium containing 10% fetal calf serum in cell-culture flasks.
# P-glycoprotein [2] = biological target: T1, P-glycoprotein; assay: Daunorubicin accumulation, flow cytometry; format: cell-based; conditions: daunorubicin 2 μg/ml, Schisandrin B 10 μg/ml, FIG. 5
# Protocol: P-glycoprotein functions as a drug pump that unilaterally pumps the anticancer drugs out of MDR cancer cells. Inhibition of P-glycoprotein results in an increase of the intracellular drug concentration within cancer cells. The inhibition of P-glycoprotein is assessed by analyzing the anticancer drug concentration within the test cells in the presence or absence of Schisandrin B. […] Cells were collected at intervals of 15, 30, 60, 90, 120, and 160 minutes after incubation.
# KBV200-implanted tumor = assay: In vivo reversal of drug resistance, KBV200-implanted tumor; design: species or system Balb/c nude mice; conditions: Balb/c nude mice bearing KBV200-implanted tumor
# Protocol: Thirty nine Balb/c nu/nu female mice were inoculated subcutaneously with KBV200 cells (5×10^6 KBV200 cells/each mouse) on day 0. […] Mean body weights were recorded daily. All mice were observed once per day (or more) for mortality and signs of ill health (i.e., weight loss, change in appetite, or behavioral changes). Therapeutic comparisons were made between control and treatment groups by determining the tumor size. Tumor size was monitored approximately every other day by caliper measurements and calculated according to the formula [Tumor weight=(length×width^2)÷2]. The median survival times (MST) and the percent increase in life span (% ILS) were calculated as: % ILS=[(MSTtreatment/MSTcontrol)−1]×100.
# “MST” represents median survival time. The survival rate (T/C %) was calculated by following equation: T/C(%)=[Average survival period in the test group/average survival period in the control group]×100. *P<0.05 compared to saline, vehicle, or Schisandrin B alone.
# K562 cells = assay: Cytotoxicity of Schisandrin B, MTT assay, 48 h; format: cell-based; conditions: 10 and 20 μg/ml, FIG. 2
# Protocol: (§1) To illustrate the cytotoxicity of Schisandrin B according to the present disclosure, cell lines selected for use include cancer cell lines K562, K562/Adr, K562/vcr; primary cultured cells, including human peripheral blood mononuclear cells (PBMC) and human fibroblast cells; noncancer cell lines, including human bone marrow stromal cell D6p4 and human liver cell HL-7702. Cells were cultured in RPMI-1640 medium containing 10% fetal calf serum. The logarithmic growing cells were seeded into a 96 well plate (20,000 cells/well).
# [3] = tested on: MDR cells (K562/Adr, K562/vcr); assay: Cytotoxicity of Schisandrin B, MTT assay, 48 h; format: cell-based; conditions: 10 and 20 μg/ml, FIG. 2
# Protocol: as §1
# [4] = tested on: normal human cells (PBMC, fibroblast cells, bone marrow stromal cell D6p4, liver cell HL-7702); assay: Cytotoxicity of Schisandrin B, MTT assay, 48 h; format: cell-based; conditions: 10 and 20 μg/ml, FIG. 2
# Protocol: as §1
# P-glycoprotein [5] = biological target: T1, P-glycoprotein; assay: Rh-123 accumulation, flow cytometry; format: cell-based; conditions: Rh-123 2 μg/ml, Schisandrin B 10 μg/ml, FIG. 6
# Protocol: P-glycoprotein functions as a drug pump that unilaterally pumps the anticancer drugs out of MDR cancer cells. Inhibition of P-glycoprotein results in an increase of the intracellular drug concentration within cancer cells. The inhibition of P-glycoprotein is assessed by analyzing the anticancer drug concentration within the test cells in the presence or absence of Schisandrin B. […] Cells were collected at intervals of 15, 30, 60, 90, and 120 minutes after incubation. […] At least 50,000 cells were analyzed for each sample.
# [6] = tested on: human epidermoid carcinoma MDR cell line KBV200; assay: Reversal of drug resistance of KBV200, MTT assay, 72 h; format: cell-based; conditions: Schisandrin B versus verapamil
# Protocol: In this embodiment, the IC50 of anticancer drugs in the presence or absence of Schisandrin B toward MDR cells was determined.
# MTT assays were carried out in triplicate against human leukemia MDR cell line K562/adr and human epidermoid carcinoma MDR cell line KBV200. MTT assays as described previously (X. Hu, et al., Chemotherapy 41:296-305 (1995)) were used to determine the cytotoxicity of each anticancer drug in the presence or absence of Schisandrin B or verapmil.
# Cells were treated with specific anticancer drugs as set forth therein. […] “SchB” represents cells treated with anticancer drugs in the presence of Schisandrin B (10 μg/ml).
# K562/adr = assay: Reversal of resistance to doxorubicin (FIG. 1); format: cell-based, human; conditions: in the presence of Schisandrin B
# Protocol: To illustrate a method for reversal of drug resistance by application of Schisandrin B, cell lines K562/adr, K562/vcr (X. Hu et al., Chemotherapy 41:296-305 (1995)), and KBv200 (X. H. Zhang et al., Yao Xue Xue Bao 29:246-251 (1994)) were selected for use because these particular cell lines are characteristic of overexpression of P-glycoprotein. Cells were cultured in RPMI-1640 medium containing 10% fetal calf serum. The test compound Schisandrin B was dissolved in dimethyl sulfoxide (DMSO) (10 mg/ml as stock). The logarithmic growing cells were seeded into a 96 well plate (20,000 cells/well). Specific anticancer drugs (set forth in Table 1) and Schisandrin B in combination were added into the wells containing the select cell lines. Controls for each anticancer drug type without Schisandrin B were also seeded into the 96 well plate. […] Cell viability was assessed by MTT assays as described in X. Hu et al., Chemotherapy 41:296-305 (1995).
# K562/vcr = assay: Reversal of drug resistance, MTT assay, 48 h; format: cell-based; conditions: FIG. 1
# Protocol: To illustrate a method for reversal of drug resistance by application of Schisandrin B, cell lines K562/adr, K562/vcr (X. […] H. […] Cells were cultured in RPMI-1640 medium containing 10% fetal calf serum. […] The logarithmic growing cells were seeded into a 96 well plate (20,000 cells/well). Specific anticancer drugs (set forth in Table 1) and Schisandrin B in combination were added into the wells containing the select cell lines. […] Cell viability was assessed by MTT assays as described in X.
# P-glycoprotein [7] = biological target: T1, P-glycoprotein; assay: [3H]Azidopine photoaffinity labeling of P-glycoprotein; format: binding; conditions: KBV200 cytoplasmic membranes, 1.0 μM azidopine, FIG. 14
# From the text: To illustrate that Schisandrin B physically interacts with P-glycoprotein according to the present disclosure, [^3H]Azidopine Photoaffinity Labeling of P-glycoportein in the presence or absence of Schisandrin B was used. [^3H]Azidopine is a chemical having unique properties that enable it to interact with P-glycoprotein. If Schisandrin B is also able to interact with P-glycoprotein, the binding of P-glycoprotein with [^3H]Azidopine would be reduced in the presence of Schisandrin B.
# The cytoplasmic membranes (enriched with P-glycoprotein) of MDR cell KBV200 were prepared according to the methods as described in May GL, et al., Int. J. Cancer 42:728-733(1988) and Hyafil F, et al., Cancer Res. 53:4595-4602(1993). Membranes were incubated with Schisandrin B for 40 minutes in the dark, followed by 1 hour incubation with 1.0 μM [H]azidopine. After UV irradiation for 2 minutes, the photolabeled membranes were subjected to SDS-PAGE on a 7.5% gel, followed by fluorography.
smiles,measurement,setting,value
COc1cc2c(c(OC)c1OC)-c1c(cc3c(c1OC)OCO3)C[C@@H](C)[C@@H](C)C2 [Schisandrin B],intracellular distribution of daunorubicin and Rh-123 in MDR cancer cells,KBV200 cells,partially restored
same,intracellular doxorubicin accumulation in K562/adr,P-glycoprotein [1],restored intracellular doxorubicin accumulation
same,intracellular daunorubicin accumulation in K562/adr,P-glycoprotein [2],restored intracellular daunorubicin accumulation
same,MST,"KBV200-implanted tumor; doxorubicin 5 mg/kg i.v., Schisandrin B 50 mg/kg gastric intubation",21.2 days
same,T/C,KBV200-implanted tumor; survival period in the test group / control group x 100,101.9%
same,cytotoxicity toward K562 cells,K562 cells,does demonstrate cytotoxicity
same,cytotoxicity toward MDR cells,[3],does not demonstrate cytotoxicity
same,cytotoxicity toward normal human cells,[4],does not demonstrate cytotoxicity
same,intracellular Rh-123 accumulation in KBV200,P-glycoprotein [5],restored intracellular Rh-123 accumulation
same,potency in reversing vincristine resistance of KBV200 relative to verapamil,[6],about 5 folds
same,sensitivity of K562/adr to doxorubicin,K562/adr,greatly increased the sensitivity
same,increase of sensitivity of K562/vcr to doxorubicin,K562/vcr; Schisandrin B 1 μg/ml,about 5 folds
same,increase of sensitivity of K562/vcr to doxorubicin,K562/vcr; Schisandrin B 10 μg/ml,~12 folds
same,increase of sensitivity of K562/vcr to doxorubicin,K562/vcr; Schisandrin B 20 μg/ml,~18 folds
same,[3H]Azidopine binding with P-glycoprotein,P-glycoprotein [7],inhibited
